“And” between values parts separate entries of the source, which are not always exact repeats. Identical values can stand only once. The source made the active and inactive calls.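 Rule for the calls: active = compound flagged as a likely artifact in this counterscreen, with IC50 of 10 µM or lower; inactive = IC50 above 10 µM.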
These compounds were tested on HEK293 Gal4-VP16 luciferase reporter counterscreen, luminescence (assay: Gal4-VP16 luciferase reporter inhibitors, dose response, counter-screen for COUP-TFII inhibitor project, cell-based, luminescence, HEK293 (AID 720547);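 note: potency for lowering the luciferase signal driven by Gal4-VP16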).
`Cc1cccc2cc(-c3ccccc3)c(-c3ccccc3)c[n+]12` was tested, and the IC50 was > 85.4 µM (inactive). `COc1ccc(CCNC(=O)C(C)n2nc(C)c3c(C)n(-c4ccc(C)cc4)nc3c2=O)c(OC)c1` (stereo unspecified) was tested, and the IC50 was > 28.5 µM (inactive). For `Fc1ccc2[nH]c3c(N4CCc5ccccc5C4)ncnc3c2c1`, the IC50 was 77.5 µM (inactive). For `Cc1cc(C)c(S(=O)(=O)NCc2ccncc2)c(C)c1`, the IC50 was > 85.4 µM (inactive). In the case of `Cc1c(Cl)cccc1NC(=O)N1CCCN(c2nc(-c3ccccc3)ns2)CC1`, the IC50 is reported as > 85.4 µM (inactive). In the case of `COc1ccc(CNC(=O)c2cccc3c(-c4cccnc4)coc23)cc1OC`, the IC50 is reported as 43.4 µM (inactive). In the case of `CC[C@@H](O)C[C@H]1CCC[C@@]2(C[C@@H]3OC(=O)/C=C/[C@@](C)(O)[C@@H](O)[C@H](C)[C@@H](O)[C@H](OC4CCC(N(C)C)C(C)O4)[C@@H](O)[C@](C)(O)CCCCC/C=C/[C@@H]4CC(C)(C)O[C@@]4(O)C[C@H](O2)[C@H]3C)O1` (stereo partly specified), the IC50 is reported as 37 µM (inactive). For `COc1ccc(OC)c(CCNC(=O)Cn2nc(C)c3c(C)n(-c4ccc(C)cc4)nc3c2=O)c1`, the IC50 was > 28.5 µM (inactive). For `Cc1cc(C(=O)NC2CCCc3c2cnn3-c2ccc(C)c(C)c2)n(C)n1` (stereo unspecified), the IC50 was > 85.4 µM (inactive). For `Cc1sc(NC(=O)CN2CCOCC2)nc1-c1ccc2c(c1)CCN2S(=O)(=O)c1ccccc1`, the IC50 was > 85.4 µM (inactive). With `O=C(CSc1nnc(Cn2nnc3ccccc32)o1)N(Cc1ccc(Cl)cc1)c1ccccc1` the IC50 was > 85.4 µM (inactive). `O=c1[nH]c(O)c(N=Nc2ccc3c(c2)OCCO3)c(=O)[nH]1` was tested, and the IC50 was 40.4 µM (inactive). In the case of `Cc1ccc(OCCN2CCN(c3ncnc4sc(C)c(C)c34)CC2)cc1`, the IC50 is reported as > 85.4 µM (inactive). In the case of `Cc1c(C(=O)N2CCN(Cc3ccc4c(c3)OCO4)CC2)sc2ncnc(N3CCN(c4ccccc4F)CC3)c12`, the IC50 is reported as 62.7 µM (inactive). For `COc1ccc(/C=N/OCC(=O)NC(c2ccccc2)c2ccccc2)cc1OC`, the IC50 was > 85.4 µM (inactive). For `COc1ccc(NC(=O)C2Cc3c(-c4ccc5c(c4)OCO5)ccnc3O2)cc1OC` (stereo unspecified), the IC50 was > 85.4 µM (inactive). For `COc1ccc(CCNc2ncnc3sc(C)cc23)cc1OC`, the IC50 was > 28.5 µM (inactive). `CCOC(=O)c1cnc(-n2nc(C)cc2C)nc1NC1CCCC1` was tested, and the IC50 was 50.3 µM (inactive). In the case of `CCc1ccc(CN(C)C(=O)c2cc(COc3cccc4cnccc34)on2)cc1`, the IC50 is reported as > 85.4 µM (inactive). With `NC(=S)NN=C1c2cc(OCCN3CCOCC3)ccc2-c2ccc(OCCN3CCOCC3)cc21` the IC50 was 12 µM (inactive). In the case of `COc1ccc(CCNc2ncnc3c2oc2ccccc23)cc1OC`, the IC50 is reported as 56.8 µM (inactive). In the case of `CCN1/C(=C/c2ccc3cc(C)ccc3[n+]2CC)Sc2ccccc21`, the IC50 is reported as 22 µM (inactive). With `CCc1cc(C(=O)NC2CCCc3c2cnn3-c2cccc(C)c2C)n(C)n1` (stereo unspecified) the IC50 was > 85.4 µM (inactive). With `Cc1ccc(Cl)cc1S(=O)(=O)N1CCC(C(=O)NC2CCN(Cc3ccccc3)CC2)CC1` the IC50 was > 85.4 µM (inactive). For `Cc1ccc(-c2csc(NC(=O)C3CCN(S(=O)(=O)c4cccs4)CC3)n2)cc1`, the IC50 was > 85.4 µM (inactive). In the case of `Cc1cc(/C=C2/SC(=S)N(c3cccc(Cl)c3)C2=O)c(C)n1-c1cccnc1`, the IC50 is reported as > 85.4 µM (inactive). For `CCCCCCn1ccc(=N)cc1`, the IC50 was > 85.4 µM (inactive). For `Cn1nc(C(C)(C)C)cc1C(=O)NCc1cc(F)cc2c1OCOC2`, the IC50 was > 85.4 µM (inactive). In the case of `NC(=O)c1ccsc1NC(=O)COC(=O)Cc1cccc2ccccc12`, the IC50 is reported as > 85.4 µM (inactive). In the case of `C/C(=N\NC(N)=S)C1C2C3CC4C5CC(C42)C1C53` (stereo unspecified), the IC50 is reported as > 85.4 µM (inactive). With `Cc1ccc(S(=O)(=O)NCc2ccncc2)c(C)c1C` the IC50 was > 85.5 µM (inactive). In the case of `CC(=O)Nc1ccc(SCC(=O)c2cc(C)n(Cc3cccs3)c2C)cc1`, the IC50 is reported as > 85.4 µM (inactive). With `Cc1cc(C(=O)NC2CCCc3c2cnn3-c2ccc(C(C)(C)C)cc2)nn1C` (stereo unspecified) the IC50 was > 85.4 µM (inactive). In the case of `CC(C)(C)OC(=O)NCCCCCc1cn([C@@H](CO)C(=O)NCCCCCCCCCCC(=O)N2CCN(C(=O)OC(C)(C)C)CC2)nn1`, the IC50 is reported as 13.3 µM (inactive). With `Cc1nnsc1NC(=O)OCc1ccc(C(C)(C)C)cc1` the IC50 was > 85.4 µM (inactive). In the case of `CCc1cc(-c2nnn(CCC3COCCO3)c2CC)ccc1-c1cn(Cc2ccc3ccccc3c2)nn1` (stereo unspecified), the IC50 is reported as > 85.4 µM (inactive). With `CN(CC1CCCO1)S(=O)(=O)c1ccc(C(=O)Nc2nc3cc4c(cc3s2)OCO4)cc1` (stereo unspecified) the IC50 was > 85.4 µM (inactive). For `CC1CC(C)(O)CC(C(O)CC2CC(=O)NC(=O)C2)C1=O` (stereo unspecified), the IC50 was > 85.3 µM (inactive). For `Cc1cc(C(=O)NC2CCCc3c2cnn3-c2cccc(C)c2C)n(C)n1` (stereo unspecified), the IC50 was > 85.4 µM (inactive). With `Cc1cc2c(=Cc3ccc(N(C)C)cc3)c3ccccc3n2[n+]1C` the IC50 was 36.5 µM (inactive). `C[n+]1c2n(c3ccccc31)N=C(c1ccc(-c3ccccc3)cc1)CS2` was tested, and the IC50 was > 28.5 µM (inactive). For `O=S(=O)(NCC1CCCO1)c1ccc(-c2ccc(S(=O)(=O)NCC3CCCO3)cc2)cc1` (stereo unspecified), the IC50 was > 85.4 µM (inactive). In the case of `COC(=O)c1ccc2nc(Nc3nc4ccc(F)cc4s3)sc2c1`, the IC50 is reported as > 85.4 µM (inactive). `Cc1cc(NC2CCCC2)n2ncc(-c3ccccc3)c2n1` was tested, and the IC50 was 62.9 µM (inactive). With `CC(C)(C)c1ccc(/C=N/Nc2ccc(C(=O)O)cc2)cc1` the IC50 was > 85.4 µM (inactive). For `CC(=O)c1cccc(NS(=O)(=O)c2ccc(-c3cnc(C4CC4)o3)cc2)c1`, the IC50 was > 85.4 µM (inactive). For `O=C(Cc1ccc(Cl)cc1Cl)Nc1ccncc1Cl`, the IC50 was > 85.4 µM (inactive). In the case of `O=C(CSc1nnc(-c2cccnc2)s1)Nc1ccnc2ccccc12`, the IC50 is reported as > 85.4 µM (inactive). With `CCNc1nc(-c2sc(NC(=O)C(C)(C)C)nc2C)c(-n2cc(-c3ccccc3)nn2)s1` the IC50 was 21.1 µM (inactive). For `Cn1nc(CC(=O)Nc2ccc3c(c2)OCCO3)c2ccccc2c1=O`, the IC50 was > 85.4 µM (inactive). For `CC(=O)c1cn(CCOc2ccccc2C)c2ccccc12`, the IC50 was > 85.4 µM (inactive). For `CCN(CC)C(=O)c1oc2ccc(S(=O)(=O)N3CC(C)CC(C)C3)cc2c1C` (stereo unspecified), the IC50 was 72.3 µM (inactive). For `Cc1ccc(-n2nc3c(=O)n(C(C)C(=O)NCc4ccccc4Cl)nc(C)c3c2C)cc1` (stereo unspecified), the IC50 was 81.8 µM (inactive). With `O=C(CSc1nnc(Cn2nnc3ccccc32)o1)N(Cc1ccc(F)cc1)c1ccccc1` the IC50 was > 85.4 µM (inactive). For `c1ccc(CNc2ncnc3ccccc23)cc1`, the IC50 was > 85.4 µM (inactive) and > 85.3 µM (inactive). In the case of `O=C(Nc1ccc(Oc2ccccc2)cc1)c1csc([C@H]2C[C@H](O)[C@@H](CO)O2)n1`, the IC50 is reported as > 85.4 µM (inactive). For `CCOc1cc(S(=O)(=O)NCc2ccncc2)ccc1Cl`, the IC50 was > 85.4 µM (inactive). In the case of `C[n+]1c2n(c3ccccc31)N=C(c1ccccc1)CS2`, the IC50 is reported as > 85.5 µM (inactive). With `COC(=O)C1=C(c2ccc(-c3ccccc3)c(F)c2)C[C@@H]2CC[C@H]1N2C(=O)N1CCCC1` the IC50 was > 85.4 µM (inactive). In the case of `COc1ccccc1-c1cc2nc(-c3ccccc3)cc(N3CCN(C(=O)c4ccco4)CC3)n2n1`, the IC50 is reported as 10.3 µM (inactive). `CC1=CC(=Cc2sc3ccccc3[n+]2C)C=C(C)O1` was tested, and the IC50 was 84.1 µM (inactive). `CCC(O)C1CCN(C(=O)c2cc(COc3ccc4ncccc4c3)on2)CC1` (stereo unspecified) was tested, and the IC50 was > 85.4 µM (inactive). In the case of `Cc1ccnc(Nc2nc(-c3sc(C)nc3C)cs2)c1`, the IC50 is reported as > 85.3 µM (inactive). `CCCCOC(=O)c1[nH]c2c(c1C)C(=O)CC(c1cc(OC)c(OC)c(OC)c1)C2` (stereo unspecified) was tested, and the IC50 was > 85.4 µM (inactive). For `CCOCCCNC(=S)N1CCN(c2nc(-c3ccc(F)cc3)cs2)CC1`, the IC50 was 45.1 µM (inactive). In the case of `Fc1ccc(NC(=S)N2CCCN(c3ccc(C(F)(F)F)cn3)CC2)c(F)c1`, the IC50 is reported as > 85.4 µM (inactive). `NC(=O)[C@H]1CC2(CC(c3cccc(NC(=O)COc4ccc(Cl)cc4)c3)=NO2)CN1C(=O)Cc1ccc([N+](=O)[O-])cc1` (stereo partly specified) was tested, and the IC50 was > 85.5 µM (inactive). `N=c1ccn(CC(=O)c2ccc(-c3ccccc3)cc2)cc1` was tested, and the IC50 was > 85.4 µM (inactive). `NC(=O)c1nnn(Cc2cc(Cl)c(C(=O)c3ccc(Cl)cc3)c(Cl)c2)c1N` was tested, and the IC50 was > 85.4 µM (inactive). With `Cc1nn(C)c(C(=O)NCc2ccc(Cl)cc2)c1Cl` the IC50 was > 85.4 µM (inactive). For `S=C(NCCc1ccccc1)Nc1cccc2cnccc12`, the IC50 was > 85.4 µM (inactive). `Cn1nc(CC(=O)Nc2ccc(N3CCN(C(=O)OC(C)(C)C)CC3)cc2)c2ccccc2c1=O` was tested, and the IC50 was 81.2 µM (inactive). With `O=C(CSc1cc(Cl)ccc1Cl)N/N=C/c1ccc[nH]1` the IC50 was > 85.4 µM (inactive). With `Cn1nccc1C(=O)NC1CCCc2c1cnn2-c1ccc(C(C)(C)C)cc1` (stereo unspecified) the IC50 was > 85.4 µM (inactive). With `COc1ccc(C(=O)Nc2ccccc2C(=O)N/N=C/c2ccc(O)c(OC)c2)cc1` the IC50 was > 28.5 µM (inactive). In the case of `CC1Cc2cc(-c3csc(NC(=O)Cc4cccs4)n3)ccc2N1S(C)(=O)=O` (stereo unspecified), the IC50 is reported as 30.5 µM (inactive). In the case of `CC[n+]1c(C=C2C=C(C)OC(C)=C2)sc2ccccc21`, the IC50 is reported as > 85.4 µM (inactive). `COc1cc(N(C)C)ccc1C=c1c2ccccc2n2c1cc(-c1ccccc1)[n+]2C` was tested, and the IC50 was 26.3 µM (inactive). In the case of `Cn1nccc1C(=O)NC1CCCc2c1cnn2-c1ccccc1F` (stereo unspecified), the IC50 is reported as > 85.4 µM (inactive). `CC(C)CNc1ncnc2c1ncn2[C@H]1CN(Cc2ccc(-c3ccccc3)cc2)C[C@@H](CO)O1` was tested, and the IC50 was 61.9 µM (inactive). For `Cc1nc2ccccc2n1Cc1ccc(Cl)cc1`, the IC50 was > 85.4 µM (inactive). In the case of `O=C(c1ccccc1)C1CCN(c2ncnc3sccc23)CC1`, the IC50 is reported as > 85.5 µM (inactive). `OC[C@@H]1CN(Cc2ccc(-c3ccccc3)cc2)C[C@H](n2cnc3c(NC4CCC4)ncnc32)O1` was tested, and the IC50 was 64.1 µM (inactive). For `Cc1ccc(-n2nc3c(=O)n(C(C)C(=O)NCCC4=CCCCC4)nc(C)c3c2C)cc1` (stereo unspecified), the IC50 was > 28.5 µM (inactive). With `CCOc1cccc(/C=N/NC(=S)Nc2ccccc2[N+](=O)[O-])c1O` the IC50 was 20.4 µM (inactive). `CC(C)c1ccc(CN2CCN(C(=O)CSc3nnnn3C3CC3)CC2)cc1` was tested, and the IC50 was > 85.4 µM (inactive). `CC1C(OC(=O)CCC(=O)NC(C)(C)CO)O[C@H]2OC3(C)CC[C@H]4[C@H](C)CCC1C24OO3` (stereo partly specified) was tested, and the IC50 was > 85.4 µM (inactive). `Fc1ccc(CN2CCN(c3ncc(Cc4ccccc4)cn3)CC2)c(Cl)c1` was tested, and the IC50 was > 85.3 µM (inactive). In the case of `Oc1ccc(CCNc2ncnc3ccc(Cl)cc23)cc1`, the IC50 is reported as > 85.4 µM (inactive). `COc1ccc(CNc2ncnc3ccccc23)cc1` was tested, and the IC50 was > 85.4 µM (inactive). With `Cc1c(C)n(Cc2ccccc2)c2ncnc(Cl)c12` the IC50 was > 85.4 µM (inactive).

— PubChem BioAssay AID720547 (The Scripps Research Institute Molecular Screening Center, 2013)
